These are literature values, as cited in patent publication US11241503B2, “Oxadiazole linkers and use thereof” (NewBio Therapeutics, Inc., priority 2017, dated 2022).

For this data set, the system named is human carcinoma lines.

`COc1cccc2c1C(=O)c1c(O)c3c(c(O)c1C2=O)C[C@@](O)(C(=O)CO)C[C@@H]3O[C@H]1C[C@H](N)[C@H](O)[C@H](C)O1` [doxorubicin, Doxorubicin]: the IC50 – broadly, the concentration that inhibits the measured activity by half – is 100 to 200 nM.
